# Experimental data published in article PMC7123778 (ACS infectious diseases, 2019).
# Assays:
# H. pylori G27 = conditions: H. pylori G27, liquid media; cited from earlier work
# [1] = cited from earlier work
# rat liver TrxR = target: T1, rat liver TrxR (Rattus norvegicus, UniProt O89049); assay: TrxR inhibition assay; format: biochemical; conditions: purified rat liver TrxR, DTNB, ΔA412 after 10 minutes
# T1 sequence (O89049 1-499): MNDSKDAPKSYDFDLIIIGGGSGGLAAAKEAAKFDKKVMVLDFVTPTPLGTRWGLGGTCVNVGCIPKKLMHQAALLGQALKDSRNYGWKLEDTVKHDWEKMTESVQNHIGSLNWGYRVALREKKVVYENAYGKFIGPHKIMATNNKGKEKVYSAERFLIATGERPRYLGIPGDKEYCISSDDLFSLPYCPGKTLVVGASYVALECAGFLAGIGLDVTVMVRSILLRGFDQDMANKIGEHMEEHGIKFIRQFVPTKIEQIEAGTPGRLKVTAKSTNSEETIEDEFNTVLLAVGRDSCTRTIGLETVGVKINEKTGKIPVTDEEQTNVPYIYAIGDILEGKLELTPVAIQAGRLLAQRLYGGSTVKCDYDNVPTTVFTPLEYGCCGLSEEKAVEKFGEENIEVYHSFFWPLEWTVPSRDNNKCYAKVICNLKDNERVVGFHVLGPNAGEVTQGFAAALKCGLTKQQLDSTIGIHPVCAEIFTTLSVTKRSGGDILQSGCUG
# free thiols in H. pylori = assay: Free thiol depletion assay; format: cell-based, Helicobacter pylori; conditions: H. pylori treated with 5.0 μM for four hours
SMILES,previously reported MIC (H. pylori G27) [µM],logP [1],half maximal inhibitory concentration (IC50) of TrxR (rat liver TrxR),free thiol concentration in comparison to untreated samples (free thiols in H. pylori)
"CC(=O)OC[C@H]1O[C@@H]([S-])[C@H](OC(C)=O)[C@@H](OC(C)=O)[C@@H]1OC(C)=O.CCP(CC)CC.[Au+] [Compound 1, auranofin]",1.2,0.56,,
CC(=O)NC1C([S][Au][PH](C)(C)C)OC(CO)C(O)C1O (centres unmarked) [Compound 6],,−2.03,inhibited TrxR most effectively,
CC1(C)S[C@@H]2[C@H](NC(=O)[C@H](N)c3ccc(O)cc3)C(=O)N2[C@H]1C(=O)O [amoxicillin],,,,no differences in free thiol concentrations
